Results as given in paper PMC8199067, “Urolithin and Reduced Urolithin Derivatives as Potent Inhibitors of Tyrosinase and Melanogenesis: Importance of the 4-Substituted Resorcinol Moiety” (International Journal of Molecular Sciences, 2021).

Tests used:
[1] = target: mushroom tyrosinase (Agaricus bisporus, UniProt C7FF04); assay: Mushroom tyrosinase inhibitory assay (L-tyrosine substrate); format: biochemical; conditions: 50 μM, L-tyrosine as substrate, mean ± SEM, NI means no inhibition
Description: The experiment was repeated three times. Mushroom tyrosinase inhibitions % were calculated using:% Inhibition = [1 − (A/B)] × 100(1) where A is the absorbance of the test compound and B is the absorbance of the blank.
Log-linear curves were plotted, and their equations were determined.

[2] = system: B16F10 melanoma cells; parameters: method as in PMID 28726389; conditions: B16F10 melanoma cells ref 70; cited from earlier work
[3] = system: B16F10 melanoma cells; parameters: method as in Su and co-workers; conditions: at the same concentration (20 µM) ref Su and co-workers; cited from earlier work

mushroom tyrosinase, sequence (C7FF04 1-392 limits assumed): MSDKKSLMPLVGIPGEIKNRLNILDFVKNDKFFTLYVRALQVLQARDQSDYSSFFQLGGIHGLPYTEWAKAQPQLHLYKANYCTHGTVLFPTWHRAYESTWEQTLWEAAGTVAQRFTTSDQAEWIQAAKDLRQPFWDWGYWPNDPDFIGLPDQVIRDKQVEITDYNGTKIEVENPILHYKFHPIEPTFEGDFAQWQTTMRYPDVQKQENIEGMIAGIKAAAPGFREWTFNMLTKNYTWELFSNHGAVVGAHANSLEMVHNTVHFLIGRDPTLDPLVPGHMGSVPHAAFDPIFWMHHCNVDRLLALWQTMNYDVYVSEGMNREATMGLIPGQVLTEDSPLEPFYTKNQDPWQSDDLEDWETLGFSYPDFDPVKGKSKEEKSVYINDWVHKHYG

inhibition at 50 µM [1] [%]	Tyrosinase Inhibition (%) ([1]; listed as urolithin B)	Tyrosinase Inhibition (%) ([1]; listed as urolitin B)	Tyrosinase Inhibition (%) ([1]; listed as urolithin A)	Compound	Antimelanogenic effect [2]	Cytotoxicity compared with 1c and 1h [3]
< 0	did not inhibit tyrosinase	did not show inhibitory activity	–	O=c1oc2cc(O)ccc2c2ccccc12 [Compound 1a, 3-Hydroxy-6H-benzo[c]chromen-6-one]	antimelanogenic effects through tyrosinase inhibition	higher cytotoxicity
< 0	–	–	did not show inhibitory activity	O=c1oc2cc(O)ccc2c2ccc(O)cc12 [Compound 1e, 3,8-Dihydroxy-6H-benzo[c]chromen-6-one]	antimelanogenic effects through tyrosinase inhibition	higher cytotoxicity
